In test [1] the target is T1, Hydroxycarboxylic acid receptor 2 (Homo sapiens, UniProt Q8TDS4). Kind of test: Agonist activity at human GPR109a receptor transfected in CHOK1 cells at 30 uM assessed as reversal of forskolin induced cAMP elevating effect by whole cell assay. The class given is functional, cell-based. Conditions: CHO-K1.
Test [2] addresses Hydroxycarboxylic acid receptor 3 (Homo sapiens, UniProt P49019). Kind of test: Agonist activity at human GPR109b receptor transfected in CHOK1 cells assessed as reversal of forskolin-induced cAMP elevating effect by whole cell assay. The class given is functional, cell-based, CHO-K1.
For test [3], the target named is T1, Hydroxycarboxylic acid receptor 2. Kind of test: Agonist activity at human GPR109a receptor transfected in CHOK1 cells assessed as reversal of forskolin induced cAMP elevating effect by whole cell assay. The class given is functional, cell-based, CHO-K1.

The structures appear in SMILES notation. The source made the active and inactive calls. The rule behind the calls is not given here.

Hydroxycarboxylic acid receptor 3, sequence (P49019 whole entry): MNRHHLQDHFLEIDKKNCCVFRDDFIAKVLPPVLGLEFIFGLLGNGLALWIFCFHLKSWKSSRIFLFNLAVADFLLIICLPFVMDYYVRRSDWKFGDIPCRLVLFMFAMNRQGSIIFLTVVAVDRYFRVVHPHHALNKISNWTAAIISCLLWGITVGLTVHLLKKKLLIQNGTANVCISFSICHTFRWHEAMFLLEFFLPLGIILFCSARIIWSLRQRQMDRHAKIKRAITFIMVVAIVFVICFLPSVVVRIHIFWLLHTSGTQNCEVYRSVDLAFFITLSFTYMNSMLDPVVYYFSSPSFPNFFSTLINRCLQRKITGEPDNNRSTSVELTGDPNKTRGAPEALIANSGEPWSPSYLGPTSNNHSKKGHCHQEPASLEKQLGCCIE
T1 sequence (Q8TDS4 whole entry): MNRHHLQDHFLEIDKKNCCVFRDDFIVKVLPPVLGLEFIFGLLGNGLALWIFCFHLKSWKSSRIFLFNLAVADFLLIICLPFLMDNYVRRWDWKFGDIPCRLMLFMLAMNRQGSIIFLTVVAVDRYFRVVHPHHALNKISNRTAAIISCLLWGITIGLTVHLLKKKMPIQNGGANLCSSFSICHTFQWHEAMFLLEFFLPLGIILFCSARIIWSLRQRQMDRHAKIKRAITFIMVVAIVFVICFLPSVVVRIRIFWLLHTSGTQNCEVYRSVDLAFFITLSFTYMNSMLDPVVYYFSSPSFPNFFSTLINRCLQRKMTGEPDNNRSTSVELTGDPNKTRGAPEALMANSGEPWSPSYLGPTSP

With `O=C(O)c1ccc(N2CCCC2)c([N+](=O)[O-])c1`, the result in test [1] was inactive. Also, the EC50 (as a rule, the midpoint of the concentration-response curve) in test [2] was more than 10000 nM.
On the same counts, the results for `CN(C)c1ccc(C(=O)O)cn1` are “inactive” and more than 10000 nM.
The matching figures for `CCNc1ccc(C(=O)O)cc1[N+](=O)[O-]`: “inactive” and 229 nM.
The matching figures for `O=C(O)c1ccc(NC2CCCC2)c([N+](=O)[O-])c1`: “inactive” and 309 nM.
Take `CCN(CC)c1ccc(C(=O)O)cc1[N+](=O)[O-]`: the result in test [1] was inactive. Besides, in test [2], the EC50 is 631 nM.
The matching figures for `O=C(O)c1ccc(NCC2CCCO2)nc1` (centres undefined): “inactive” and 603 nM.
The matching figures for `CCC(C)Nc1ccc(C(=O)O)cc1[N+](=O)[O-]` (centres undefined): “inactive” and 151 nM.
On the same counts, the results for `CC(C)Nc1ccc(C(=O)O)cc1[N+](=O)[O-]` are “inactive” and 257 nM.
Turning to `CCCCNc1ccc(C(=O)O)cc1[N+](=O)[O-]`, the result in test [1] was inactive. The EC50 in test [2] is 158 nM.
Turning to `CNc1ccc(C(=O)O)cn1`, the outcome in test [1] was inactive. Besides, the EC50 in test [2] was 7410 nM.
The matching figures for `O=C(O)c1ccc(NCC2CCCO2)c([N+](=O)[O-])c1` (centres undefined): “inactive” and 309 nM.
Turning to `CCCN(C)c1ccc(C(=O)O)cc1[N+](=O)[O-]`, the result in test [1] was inactive. In test [2], the EC50 is 52.5 nM.
The matching figures for `CC(C)C(C)Nc1ccc(C(=O)O)cc1[N+](=O)[O-]` (centres undefined): “inactive” and 363 nM.
The matching figures for `CCCN(C)c1ccc(C(=O)O)cn1`: “inactive” and 1620 nM.
On the same counts, the results for `COCC(C)Nc1ccc(C(=O)O)cc1[N+](=O)[O-]` (centres undefined) are “inactive” and 1410 nM.
As for `CCCCCNc1ccc(C(=O)O)cc1[N+](=O)[O-]`, the result in test [1] was inactive. Moreover, the EC50 in test [2] is 282 nM.
The matching figures for `O=C(O)c1ccc(NC2CCC2)nc1`: “inactive” and 72.4 nM.
The matching figures for `O=C(O)c1ccc(NC(=O)c2ccccc2)nc1`: “inactive” and 1580 nM.
On the same counts, the results for `CC(C)Nc1ccc(C(=O)O)cn1` are “inactive” and 603 nM.
With `CCCN(CCC)c1ccc(C(=O)O)cc1[N+](=O)[O-]`, the result in test [1] was inactive. The EC50 in test [2] was 120 nM.
In the case of `O=C(O)c1ccc(NC2CCCC2)nc1`, the result in test [1] was inactive. Further, the EC50 in test [2] is 389 nM.
With `CC(C)CNc1ccc(C(=O)O)cn1`, the EC50 in test [2] was 1070 nM; in test [3], 35000 nM.
Turning to `CCCNc1ccc(C(=O)O)cc1[N+](=O)[O-]`, the outcome in test [1] was inactive. Further, in test [2], the EC50 was 29.5 nM.
The matching figures for `O=C(O)c1ccc(NC(=O)c2ccccc2)c([N+](=O)[O-])c1`: “inactive” and 3090 nM.
With `CCC(CC)Nc1ccc(C(=O)O)cn1`, the concentration for a half-maximal effect (EC50) in test [2] was 269 nM; in test [3] it was 20000 nM.
For the compound `O=C(O)c1ccc(N2CCCC2)nc1`, the outcome in test [1] and in test [2] (CHO-K1) was inactive.
Regarding `CCNc1ccc(C(=O)O)cn1`, the result in test [1] was inactive. The EC50 in test [2] was 398 nM.
The matching figures for `COCCNc1ccc(C(=O)O)cn1`: “inactive” and 933 nM.
On the same counts, the results for `CCCN(CCC)c1ccc(C(=O)O)cn1` are “inactive” and 6310 nM.
Consider `CC(C)C(C)Nc1ccc(C(=O)O)cn1` (centres undefined), for which the outcome in test [1] was inactive. Further, in test [2], the EC50 was 1320 nM.
`C=CCNc1ccc(C(=O)O)cn1`: the outcome in test [1] was inactive. In addition, the EC50 in test [2] is 70.8 nM.
Consider `CCCNc1ccc(C(=O)O)cn1`, for which the result in test [1] was inactive. Further, the EC50 in test [2] is 51.3 nM.
The matching figures for `O=C(O)c1ccc(NC2CC2)c([N+](=O)[O-])c1`: “inactive” and 309 nM.
On the same counts, the results for `O=C(O)c1ccc(Nc2ccccc2)nc1` are “inactive” and 3240 nM.
On to `COCC(C)Nc1ccc(C(=O)O)cn1` (centres undefined), for which, in test [1], the outcome was inactive. The EC50 in test [2] was 3240 nM.
On the same counts, the results for `CCCCNc1ccc(C(=O)O)cn1` are “inactive” and 100 nM.
As to `O=C(O)c1ccc(NC2CC2)nc1`, the result in test [1] was inactive. Besides, the EC50 in test [2] is 324 nM.
On the same counts, the results for `CCCCCNc1ccc(C(=O)O)cn1` are “inactive” and 151 nM.
On the same counts, the results for `CCN(CC)c1ccc(C(=O)O)cn1` are “inactive” and more than 10000 nM.
The matching figures for `CNc1ccc(C(=O)O)cc1[N+](=O)[O-]`: “inactive” and 1910 nM.
With `O=C(O)c1ccc(Nc2ccccc2)c([N+](=O)[O-])c1`, in test [1], the result was inactive. For the same compound, the EC50 in test [2] is 2450 nM.
`CCC(C)Nc1ccc(C(=O)O)cn1` (centres undefined): in test [1], the result was inactive. Besides, the EC50 in test [2] is 380 nM.
On the same counts, the results for `COCCNc1ccc(C(=O)O)cc1[N+](=O)[O-]` are “inactive” and 589 nM.
The matching figures for `CCC(CC)Nc1ccc(C(=O)O)cc1[N+](=O)[O-]`: “inactive” and 57.5 nM.
On the same counts, the results for `C=CCNc1ccc(C(=O)O)cc1[N+](=O)[O-]` are “inactive” and 100 nM.
In the case of `O=C(O)c1ccc(NC2CCC2)c([N+](=O)[O-])c1`, the outcome in test [1] was inactive. For the same compound, the EC50 in test [2] is 200 nM.
Regarding `CN(C)c1ccc(C(=O)O)cc1[N+](=O)[O-]`, in test [1], the result was inactive. In addition, in test [2], the EC50 is 2040 nM.

The record behind these values is ChEMBL document CHEMBL1137621, “3-Nitro-4-amino benzoic acids and 6-amino nicotinic acids are highly selective agonists of GPR109b” (Bioorg Med Chem Lett, 2007).
